Experimental data from ChEMBL document CHEMBL1201862, “PubChem BioAssay data set” (2004).
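Results reflect a 48-hour exposure of cells in 96-well plates to compound at five concentrations. GI50 is the concentration that inhibits growth by half.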 Activity calls are given as the source filed them. No stated cut-off is given here; in the data, active = GI50 up to about 1.1 µM and inactive = higher.

Tests used:
Experiment in all cases: NCI anticancer screen, dose series, 48 h
786-0 = tested on: 786-0
A498 = tested on: A498
ACHN = tested on: ACHN
HCT-116 = tested on: HCT-116
HCT-15 = tested on: HCT-15
HL-60 = tested on: HL-60
LOX IMVI = tested on: LOX IMVI
MCF7 = tested on: MCF7
MDA-MB-435 = tested on: MDA-MB-435
OVCAR-5 = tested on: OVCAR-5
PC-3 = tested on: PC-3
RXF 393 = tested on: RXF 393
SF-539 = tested on: SF-539
SK-OV-3 = tested on: SK-OV-3
SNB-75 = tested on: SNB-75
SR = tested on: SR
U-251 = tested on: U-251
UACC-257 = tested on: UACC-257
UACC-62 = tested on: UACC-62
UO-31 = tested on: UO-31

| SMILES | GI50 (786-0) | GI50 (A498) | GI50 (ACHN) | GI50 (HCT-116) | GI50 (HCT-15) | GI50 (HL-60) | GI50 (LOX IMVI) | GI50 (MCF7) | GI50 (MDA-MB-435) | GI50 (OVCAR-5) | GI50 (PC-3) | GI50 (RXF 393) | GI50 (SF-539) | GI50 (SK-OV-3) | GI50 (SNB-75) | GI50 (SR) | GI50 (U-251) | GI50 (UACC-257) | GI50 (UACC-62) | GI50 (UO-31) |
| --- | --- | --- | --- | --- | --- | --- | --- | --- | --- | --- | --- | --- | --- | --- | --- | --- | --- | --- | --- | --- |
| CC(=O)Nc1cc2c3c(c1)CCCN3CCC2 | > 100 µM (inactive) | > 100 µM (inactive) | > 100 µM (inactive) | > 100 µM (inactive) | > 100 µM | > 100 µM (inactive) | > 100 µM (inactive) | > 100 µM (inactive) | > 100 µM (inactive) | > 100 µM (inactive) | > 100 µM (inactive) | > 100 µM (inactive) | > 100 µM (inactive) | > 100 µM (inactive) | 65.5 µM (inactive) | > 100 µM (inactive) | > 100 µM (inactive) | > 100 µM (inactive) | > 100 µM (inactive) | > 100 µM (inactive) |
| COc1cc2cc(C(=O)N3C[C@@H](CCl)c4c3cc(N)c3ccccc43)[nH]c2c(OC)c1OC | 0.103 µM (active) | 0.00863 µM (active) | 0.00942 µM (active) | 0.000301 µM (active) | 0.000579 µM | 0.00318 µM (active) | 0.00313 µM (active) | 0.00145 µM (active) | 0.000269 µM (active) | < 0.01 µM (active) | 0.00102 µM (active) | 0.00157 µM (active) | 0.00213 µM (active) | 0.00457 µM (active) | < 0.01 µM (active) | 0.000455 µM (active) | 0.00163 µM (active) | 0.237 µM (active) | 0.000895 µM (active) | 0.00622 µM (active) |
| O=c1c2cc([N+](=O)[O-])ccc2nc2n1CCCCC2 | > 100 µM (inactive) | 87.9 µM (inactive) | > 100 µM (inactive) | > 100 µM (inactive) | > 100 µM | 14.2 µM (inactive) | > 100 µM (inactive) | > 100 µM (inactive) | > 100 µM (inactive) | > 100 µM (inactive) | 89.3 µM (inactive) | > 100 µM (inactive) | > 100 µM (inactive) | > 100 µM (inactive) | 57.1 µM (inactive) | > 100 µM (inactive) | > 100 µM (inactive) | > 100 µM (inactive) | > 100 µM (inactive) | > 100 µM (inactive) |
| CC(Oc1ccccc1Cl)C(=O)NN1C(=O)CSC1c1ccccc1 (stereo not given) | 74.5 µM (inactive) | > 100 µM (inactive) | > 100 µM (inactive) | 34.9 µM (inactive) | > 100 µM | 28.2 µM (inactive) | > 100 µM (inactive) | 92.3 µM (inactive) | 75.3 µM (inactive) | > 100 µM (inactive) | > 100 µM (inactive) | 61.2 µM (inactive) | > 100 µM (inactive) | > 100 µM (inactive) | > 100 µM (inactive) | 21.9 µM (inactive) | > 100 µM (inactive) | > 100 µM (inactive) | > 100 µM (inactive) | > 100 µM (inactive) |
| c1ccc(C2=C(c3ccccc3)Sc3nnc(CCCCCCCCc4nnc5n4NC(c4ccccc4)=C(c4ccccc4)S5)n3N2)cc1 | 61 µM (inactive) | > 100 µM (inactive) | 53.8 µM (inactive) | 25.8 µM (inactive) | 37.5 µM | 17.7 µM (inactive) | 48.2 µM (inactive) | 35.8 µM (inactive) | 34.9 µM (inactive) | > 100 µM (inactive) | 41.4 µM (inactive) | 50.4 µM (inactive) | > 100 µM (inactive) | > 100 µM (inactive) | 63.2 µM (inactive) | 29.9 µM (inactive) | 45.2 µM (inactive) | > 100 µM (inactive) | 46.6 µM (inactive) | 27.4 µM (inactive) |
| COc1ccc(NC(C)=O)cc1N1C(=O)/C(=C\c2cc(OC)c(OC)c(OC)c2)S(=O)(=O)C1c1ccccc1 (stereo not given) | 72.9 µM (inactive) | > 100 µM (inactive) | 70.5 µM (inactive) | 29.3 µM (inactive) | 73.1 µM | 19.3 µM (inactive) | 68.1 µM (inactive) | 33 µM (inactive) | 39.7 µM (inactive) | 23.5 µM (inactive) | 39.3 µM (inactive) | 74.6 µM (inactive) | > 100 µM (inactive) | > 100 µM (inactive) | 39 µM (inactive) | 33 µM (inactive) | 46.8 µM (inactive) | 89.5 µM (inactive) | 65.6 µM (inactive) | 38.7 µM (inactive) |
| CCc1cc(Cc2cc(CC)c(NC(=O)C(=O)CC(=O)c3sc(-c4cccnc4)nc3C)c(CC)c2)cc(CC)c1NC(=O)C(=O)CC(=O)c1sc(-c2cccnc2)nc1C | > 100 µM (inactive) | > 100 µM (inactive) | > 100 µM (inactive) | > 100 µM (inactive) | > 100 µM | > 100 µM (inactive) | > 100 µM (inactive) | > 100 µM (inactive) | > 100 µM (inactive) | > 100 µM (inactive) | > 100 µM (inactive) | > 100 µM (inactive) | > 100 µM (inactive) | > 100 µM (inactive) | > 100 µM (inactive) | > 10 µM (inactive) | > 100 µM (inactive) | > 100 µM (inactive) | > 100 µM (inactive) | > 100 µM (inactive) |
| CC12C(=O)OC(=O)C1(C)C1C=CC2O1 (stereo not given) | > 100 µM (inactive) | > 100 µM (inactive) | > 100 µM (inactive) | > 100 µM (inactive) | > 100 µM | > 100 µM (inactive) | > 100 µM (inactive) | > 100 µM (inactive) | > 100 µM (inactive) | > 100 µM (inactive) | > 100 µM (inactive) | 40.6 µM (inactive) | > 100 µM (inactive) | > 100 µM (inactive) | 14.9 µM (inactive) | > 100 µM (inactive) | > 100 µM (inactive) | > 100 µM (inactive) | > 100 µM (inactive) | 62.1 µM (inactive) |
| C#CC1(O)C(COP(=O)(O)OC(COCCCCCCCCCCCCCCCCCC)COP(=O)(O)OCC2OC(n3cc(C)c(=O)[nH]c3=O)CC2N=[N+]=[N-])OC(n2ccc(N)nc2=O)C1O (stereo not given) | 0.706 µM (active) | 1.69 µM (inactive) | 0.432 µM (active) | 0.105 µM (active) | 0.582 µM | 0.617 µM (active) | 0.224 µM (active) | 0.122 µM (active) | 0.859 µM (active) | 3.28 µM (inactive) | 2.86 µM (inactive) | 1.37 µM (inactive) | 0.282 µM (active) | 4 µM (inactive) | 2.52 µM (inactive) | < 0.0429 µM (active) | 0.264 µM (active) | 3.77 µM (inactive) | 1.88 µM (inactive) | 0.194 µM (active) |
| CCOC(=O)c1cc(-c2ccc(OC)c(OC)c2)cn1C | > 10 µM (inactive) | > 10 µM (inactive) | > 10 µM (inactive) | > 10 µM (inactive) | > 10 µM | > 10 µM (inactive) | > 10 µM (inactive) | > 10 µM (inactive) | > 10 µM (inactive) | > 10 µM (inactive) | > 10 µM (inactive) | > 10 µM (inactive) | > 10 µM (inactive) | > 10 µM (inactive) | 4.43 µM (inactive) | > 10 µM (inactive) | > 10 µM (inactive) | > 10 µM (inactive) | > 10 µM (inactive) | > 10 µM (inactive) |
| O=C(CC(O)c1cccnc1)CC(O)c1cccnc1 (stereo not given) | 16.3 µM (inactive) | 15.9 µM (inactive) | 17.8 µM (inactive) | 2.04 µM (inactive) | 14.1 µM | 3.17 µM (inactive) | 5.18 µM (inactive) | 4.34 µM (inactive) | 16.4 µM (inactive) | 24.2 µM (inactive) | 15.8 µM (inactive) | 16.7 µM (inactive) | 21.2 µM (inactive) | 17.5 µM (inactive) | 14.5 µM (inactive) | 2.78 µM (inactive) | 16.5 µM (inactive) | 18.1 µM (inactive) | 16.6 µM (inactive) | 17.4 µM (inactive) |
| CC(C)/C(Cl)=N\OC(=O)Nc1ccc(C#N)cc1 | 5.12 µM (inactive) | 14.5 µM (inactive) | 6.95 µM (inactive) | 5 µM (inactive) | 10.5 µM | 2.56 µM (inactive) | 3.3 µM (inactive) | 9.04 µM (inactive) | 8.04 µM (inactive) | 15.1 µM (inactive) | 16.5 µM (inactive) | 1.85 µM (inactive) | 15.9 µM (inactive) | 17.3 µM (inactive) | 17.7 µM (inactive) | 2.17 µM (inactive) | 18 µM (inactive) | 12.3 µM (inactive) | 17 µM (inactive) | 9.02 µM (inactive) |
| NS(=O)(=O)c1ccc(NNc2c3ccccc3nc3c(C(=O)Nc4ccc(S(N)(=O)=O)cc4)cccc23)cc1 | 15.6 µM (inactive) | > 100 µM (inactive) | 27.7 µM (inactive) | 22.1 µM (inactive) | > 100 µM | 22.3 µM (inactive) | 11.5 µM (inactive) | 12.9 µM (inactive) | 49.3 µM (inactive) | 62.7 µM (inactive) | 30.2 µM (inactive) | 6.73 µM (inactive) | 25.7 µM (inactive) | 50 µM (inactive) | 14.5 µM (inactive) | 9.42 µM (inactive) | 14.5 µM (inactive) | 98.4 µM (inactive) | 22.2 µM (inactive) | 63 µM (inactive) |
| CN1CCC2(CC1)SC[C@H]1C(=O)N(c3ccc(Cl)cc3)C(=O)N12 | > 100 µM (inactive) | 24.2 µM (inactive) | 25.9 µM (inactive) | > 100 µM (inactive) | 50.1 µM | > 100 µM (inactive) | > 100 µM (inactive) | > 100 µM (inactive) | 43.7 µM (inactive) | > 100 µM (inactive) | > 100 µM (inactive) | > 100 µM (inactive) | > 100 µM (inactive) | > 100 µM (inactive) | > 100 µM (inactive) | > 100 µM (inactive) | > 100 µM (inactive) | > 100 µM (inactive) | > 100 µM (inactive) | > 100 µM (inactive) |
